Results published in the kinase profiling compilation of Christmann-Franck et al. (2016).

Experiments:
Test in all cases: KINOMEscan competition binding
Conditions in all cases: compound 10.0 µM
MAP3K13 (human) = MAP3K13 (human) (UniProt O43283)
STK32A (human) = STK32A (human) (UniProt Q8WU08)
CDK4 CCND1 (human) = CDK4 CCND1 (human) (UniProt P11802+P24385)
SNRK (human) = SNRK (human) (UniProt Q9NRH2)
NEK3 (human) = NEK3 (human) (UniProt P51956)
YSK4 (human) = YSK4 (human) (UniProt Q56UN5)
PIP4K2C (human) = PIP4K2C (human) (UniProt Q8TBX8)
ROCK1 (human) = ROCK1 (human) (UniProt Q13464)
CSNK1A1 (human) = CSNK1A1 (human) (UniProt P48729)
ERN1 (human) = ERN1 (human) (UniProt O75460)
GRK4 (human) = GRK4 (human) (UniProt P32298)
[1] = test system: EGFR (human), P00533 [G719S]
MAP3K15 (human) = MAP3K15 (human) (UniProt Q6ZN16)
TIE1 (human) = TIE1 (human) (UniProt P35590)
MATK (human) = MATK (human) (UniProt P42679)
DYRK2 (human) = DYRK2 (human) (UniProt Q92630)
CDKL3 (human) = CDKL3 (human) (UniProt Q8IVW4)
MAK (human) = MAK (human) (UniProt P20794)
TRPM6 (human) = TRPM6 (human) (UniProt Q9BX84)
Chain of TRPM6 (human) (Q9BX84 whole entry, looked up): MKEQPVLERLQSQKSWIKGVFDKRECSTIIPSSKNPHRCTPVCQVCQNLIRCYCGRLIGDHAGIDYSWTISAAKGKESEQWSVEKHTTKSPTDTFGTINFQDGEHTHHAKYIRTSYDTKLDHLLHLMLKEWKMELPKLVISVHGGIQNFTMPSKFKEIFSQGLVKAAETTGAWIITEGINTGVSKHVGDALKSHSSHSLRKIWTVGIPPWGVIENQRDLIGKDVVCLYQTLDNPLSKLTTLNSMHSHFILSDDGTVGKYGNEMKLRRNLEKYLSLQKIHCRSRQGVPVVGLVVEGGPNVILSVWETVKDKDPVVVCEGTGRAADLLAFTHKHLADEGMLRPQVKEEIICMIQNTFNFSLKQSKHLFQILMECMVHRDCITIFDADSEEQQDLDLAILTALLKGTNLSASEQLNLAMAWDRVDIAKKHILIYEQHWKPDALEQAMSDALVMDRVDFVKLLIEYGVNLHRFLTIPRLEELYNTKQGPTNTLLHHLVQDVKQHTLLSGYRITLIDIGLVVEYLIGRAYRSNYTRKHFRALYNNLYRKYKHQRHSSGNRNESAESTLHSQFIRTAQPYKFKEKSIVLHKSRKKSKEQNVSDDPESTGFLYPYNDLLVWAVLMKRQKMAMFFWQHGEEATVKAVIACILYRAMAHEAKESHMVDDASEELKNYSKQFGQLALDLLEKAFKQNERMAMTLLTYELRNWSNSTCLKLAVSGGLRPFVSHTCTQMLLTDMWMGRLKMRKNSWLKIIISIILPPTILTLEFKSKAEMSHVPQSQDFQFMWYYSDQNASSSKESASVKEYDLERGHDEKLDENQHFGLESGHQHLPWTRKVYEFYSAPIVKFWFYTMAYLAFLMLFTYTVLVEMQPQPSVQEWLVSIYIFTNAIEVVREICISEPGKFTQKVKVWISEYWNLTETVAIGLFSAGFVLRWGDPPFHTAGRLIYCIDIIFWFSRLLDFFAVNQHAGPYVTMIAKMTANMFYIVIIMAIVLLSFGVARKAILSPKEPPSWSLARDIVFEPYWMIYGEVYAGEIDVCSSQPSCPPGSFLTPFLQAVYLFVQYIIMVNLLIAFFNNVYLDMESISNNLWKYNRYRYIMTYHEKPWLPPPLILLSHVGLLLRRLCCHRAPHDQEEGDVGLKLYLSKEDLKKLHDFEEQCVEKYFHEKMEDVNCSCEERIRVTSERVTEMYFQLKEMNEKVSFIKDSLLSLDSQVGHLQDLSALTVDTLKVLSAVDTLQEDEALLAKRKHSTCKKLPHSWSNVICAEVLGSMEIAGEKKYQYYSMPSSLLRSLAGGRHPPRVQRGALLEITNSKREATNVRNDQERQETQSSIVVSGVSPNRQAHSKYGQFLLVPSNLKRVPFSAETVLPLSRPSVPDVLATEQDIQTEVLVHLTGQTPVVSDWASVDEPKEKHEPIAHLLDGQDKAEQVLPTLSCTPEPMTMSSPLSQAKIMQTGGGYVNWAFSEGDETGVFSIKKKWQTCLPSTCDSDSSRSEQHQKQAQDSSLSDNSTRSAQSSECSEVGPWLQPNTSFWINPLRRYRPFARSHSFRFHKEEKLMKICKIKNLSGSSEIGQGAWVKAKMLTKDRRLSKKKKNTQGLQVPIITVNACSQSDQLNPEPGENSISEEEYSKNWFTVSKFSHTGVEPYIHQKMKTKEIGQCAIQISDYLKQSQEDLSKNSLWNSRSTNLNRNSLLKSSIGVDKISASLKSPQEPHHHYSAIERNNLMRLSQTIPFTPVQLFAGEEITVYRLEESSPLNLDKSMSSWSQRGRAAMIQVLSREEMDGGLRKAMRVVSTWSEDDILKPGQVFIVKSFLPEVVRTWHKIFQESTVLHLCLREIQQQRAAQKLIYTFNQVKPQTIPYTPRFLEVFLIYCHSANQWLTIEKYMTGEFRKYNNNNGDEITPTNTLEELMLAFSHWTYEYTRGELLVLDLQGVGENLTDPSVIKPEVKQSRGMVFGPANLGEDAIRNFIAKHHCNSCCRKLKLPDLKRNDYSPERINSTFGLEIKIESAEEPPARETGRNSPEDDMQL

[2] = test system: PIK3CA (human), P42336 [E545K]
MET (human) = MET (human) (UniProt P08581)
Chain of MET (human) (P08581 whole entry, looked up): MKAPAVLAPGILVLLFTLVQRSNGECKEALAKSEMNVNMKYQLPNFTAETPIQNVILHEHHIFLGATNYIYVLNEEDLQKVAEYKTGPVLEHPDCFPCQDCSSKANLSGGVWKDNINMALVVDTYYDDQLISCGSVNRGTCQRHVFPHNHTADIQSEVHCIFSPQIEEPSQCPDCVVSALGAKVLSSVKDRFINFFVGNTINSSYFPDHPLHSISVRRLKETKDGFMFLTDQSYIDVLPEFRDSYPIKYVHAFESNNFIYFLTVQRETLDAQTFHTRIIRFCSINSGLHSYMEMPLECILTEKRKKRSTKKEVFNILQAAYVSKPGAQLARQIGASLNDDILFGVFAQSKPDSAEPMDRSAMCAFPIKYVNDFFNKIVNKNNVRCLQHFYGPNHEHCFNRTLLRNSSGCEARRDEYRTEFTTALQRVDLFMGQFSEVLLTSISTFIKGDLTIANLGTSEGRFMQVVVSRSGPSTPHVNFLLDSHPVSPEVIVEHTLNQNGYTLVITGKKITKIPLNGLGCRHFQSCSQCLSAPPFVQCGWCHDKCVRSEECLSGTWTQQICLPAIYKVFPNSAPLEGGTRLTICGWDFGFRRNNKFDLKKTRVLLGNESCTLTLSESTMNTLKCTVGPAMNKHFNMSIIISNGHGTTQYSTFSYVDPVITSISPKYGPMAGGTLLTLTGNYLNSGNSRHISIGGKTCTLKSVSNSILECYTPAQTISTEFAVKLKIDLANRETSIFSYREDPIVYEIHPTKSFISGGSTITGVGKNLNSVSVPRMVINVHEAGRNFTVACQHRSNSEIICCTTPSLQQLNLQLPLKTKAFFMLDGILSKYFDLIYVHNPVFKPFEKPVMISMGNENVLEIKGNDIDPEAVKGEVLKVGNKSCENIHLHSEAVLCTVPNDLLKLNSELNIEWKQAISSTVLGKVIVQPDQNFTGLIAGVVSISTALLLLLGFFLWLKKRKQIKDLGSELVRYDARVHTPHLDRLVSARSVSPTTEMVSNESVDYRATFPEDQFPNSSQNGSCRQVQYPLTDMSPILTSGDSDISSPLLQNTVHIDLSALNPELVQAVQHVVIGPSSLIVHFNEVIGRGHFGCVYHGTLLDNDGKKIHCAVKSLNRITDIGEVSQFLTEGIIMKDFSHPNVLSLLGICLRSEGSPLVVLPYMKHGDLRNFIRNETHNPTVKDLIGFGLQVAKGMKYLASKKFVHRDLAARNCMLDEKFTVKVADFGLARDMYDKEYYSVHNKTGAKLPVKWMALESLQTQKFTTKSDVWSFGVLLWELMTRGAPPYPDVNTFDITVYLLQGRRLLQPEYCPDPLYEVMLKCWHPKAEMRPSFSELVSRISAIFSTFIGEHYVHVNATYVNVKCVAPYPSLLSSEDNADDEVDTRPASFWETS

[3] = test system: KIT (human), P10721 [V559D/T670I]
Chain of KIT (human), P10721 [V559D/T670I] (P10721 whole entry V559D/T670I, looked up): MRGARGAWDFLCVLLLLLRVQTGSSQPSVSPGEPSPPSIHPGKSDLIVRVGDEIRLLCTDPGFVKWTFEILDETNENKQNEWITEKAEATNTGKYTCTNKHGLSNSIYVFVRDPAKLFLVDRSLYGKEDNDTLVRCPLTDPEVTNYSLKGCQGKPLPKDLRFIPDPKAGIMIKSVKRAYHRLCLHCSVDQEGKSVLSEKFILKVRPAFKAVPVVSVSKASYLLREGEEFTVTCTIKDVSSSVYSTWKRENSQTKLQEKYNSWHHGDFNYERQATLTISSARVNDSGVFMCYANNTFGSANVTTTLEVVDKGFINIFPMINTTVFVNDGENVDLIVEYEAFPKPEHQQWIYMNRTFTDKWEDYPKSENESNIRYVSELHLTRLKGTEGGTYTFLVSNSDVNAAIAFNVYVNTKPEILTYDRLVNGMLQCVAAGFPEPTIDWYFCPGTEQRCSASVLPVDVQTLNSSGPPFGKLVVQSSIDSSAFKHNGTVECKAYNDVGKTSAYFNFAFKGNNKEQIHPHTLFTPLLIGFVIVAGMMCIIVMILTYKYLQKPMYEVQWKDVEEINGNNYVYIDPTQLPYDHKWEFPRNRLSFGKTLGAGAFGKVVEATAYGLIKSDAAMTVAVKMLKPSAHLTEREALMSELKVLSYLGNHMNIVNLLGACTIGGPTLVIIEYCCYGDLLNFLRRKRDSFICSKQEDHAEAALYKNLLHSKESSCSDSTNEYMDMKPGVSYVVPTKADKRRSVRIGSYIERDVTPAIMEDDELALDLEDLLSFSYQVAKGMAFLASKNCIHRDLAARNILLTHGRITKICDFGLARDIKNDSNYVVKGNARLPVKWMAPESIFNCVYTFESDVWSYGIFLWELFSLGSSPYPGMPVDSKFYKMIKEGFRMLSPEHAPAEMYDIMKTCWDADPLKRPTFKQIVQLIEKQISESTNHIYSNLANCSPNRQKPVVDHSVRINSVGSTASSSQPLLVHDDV

HUNK (human) = HUNK (human) (UniProt P57058)
VRK2 (human) = VRK2 (human) (UniProt Q86Y07)
GRK1 (human) = GRK1 (human) (UniProt Q15835)
[4] = test system: EGFR (human), P00533 [P753S; 747-752 del]
MAP2K7 (human) = MAP2K7 (human) (UniProt O14733)
Chain of MAP2K7 (human) (O14733 whole entry, looked up): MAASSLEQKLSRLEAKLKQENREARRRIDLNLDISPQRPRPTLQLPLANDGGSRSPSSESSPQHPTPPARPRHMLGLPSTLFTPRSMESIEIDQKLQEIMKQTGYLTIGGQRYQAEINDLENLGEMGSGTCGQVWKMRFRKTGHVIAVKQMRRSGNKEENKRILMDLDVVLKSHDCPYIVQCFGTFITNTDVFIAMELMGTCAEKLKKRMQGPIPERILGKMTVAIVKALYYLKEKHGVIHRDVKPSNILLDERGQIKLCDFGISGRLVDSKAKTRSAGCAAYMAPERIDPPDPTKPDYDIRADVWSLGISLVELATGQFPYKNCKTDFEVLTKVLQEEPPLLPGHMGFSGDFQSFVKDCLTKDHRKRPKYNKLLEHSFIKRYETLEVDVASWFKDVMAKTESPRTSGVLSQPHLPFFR

ERBB3 (human) = ERBB3 (human) (UniProt P21860)
NEK4 (human) = NEK4 (human) (UniProt P51957)
IRAK4 (human) = IRAK4 (human) (UniProt Q9NWZ3)
PKN3 (M.tuberculosis) = PKN3 (M.tuberculosis) (UniProt Q6P5Z2)
HIPK4 (human) = HIPK4 (human) (UniProt Q8NE63)
PLK2 (human) = PLK2 (human) (UniProt Q9NYY3)
TBK1 (human) = TBK1 (human) (UniProt Q9UHD2)
CDKL5 (human) = CDKL5 (human) (UniProt O76039)
[5] = test system: ABL1 (human), P00519 [E255K]
PIK3CG (human) = PIK3CG (human) (UniProt P48736)
CPK1 (P.falciparum) = test system: CPK1 (P.falciparum)
EPHB6 (human) = EPHB6 (human) (UniProt O15197)
[6] = test system: PIK3CA (human), P42336 [C420R]

Structure (SMILES)	kinase still bound, per cent of control (MAP3K13 (human))	kinase still bound, per cent of control (STK32A (human))	kinase still bound, per cent of control (CDK4 CCND1 (human))	kinase still bound, per cent of control (SNRK (human))	kinase still bound, per cent of control (NEK3 (human))	kinase still bound, per cent of control (YSK4 (human))	kinase still bound, per cent of control (PIP4K2C (human))	kinase still bound, per cent of control (ROCK1 (human))	kinase still bound, per cent of control (CSNK1A1 (human))	kinase still bound, per cent of control (ERN1 (human))	kinase still bound, per cent of control (GRK4 (human))	kinase still bound, per cent of control (MAP3K15 (human))	kinase still bound, per cent of control (TIE1 (human))	kinase still bound, per cent of control (MATK (human))	kinase still bound, per cent of control (DYRK2 (human))	kinase still bound, per cent of control (CDKL3 (human))	kinase still bound, per cent of control (MAK (human))	kinase still bound, per cent of control (TRPM6 (human))	kinase still bound, per cent of control [2]	kinase still bound, per cent of control (MET (human))	other results
O=C1Nc2ccc(I)cc2/C1=C/c1cc(Br)c(O)c(Br)c1	100%	91%	65%	99%	95%	0.4%	100%	80%	81%	57%	21%	80%	86%	100%	54%	88%	100%	100%	100%	100%	kinase still bound, per cent of control [1]: 84%; kinase still bound, per cent of control [3]: 23%; kinase still bound, per cent of control (HUNK (human)): 2.8%; kinase still bound, per cent of control (VRK2 (human)): 82%; kinase still bound, per cent of control (GRK1 (human)): 92%; kinase still bound, per cent of control [4]: 50%; kinase still bound, per cent of control (MAP2K7 (human)): 98%; kinase still bound, per cent of control (ERBB3 (human)): 87%; kinase still bound, per cent of control (NEK4 (human)): 93%; kinase still bound, per cent of control (IRAK4 (human)): 90%; kinase still bound, per cent of control (PKN3 (M.tuberculosis)): 64%; kinase still bound, per cent of control (HIPK4 (human)): 21%; kinase still bound, per cent of control (PLK2 (human)): 71%; kinase still bound, per cent of control (TBK1 (human)): 95%; kinase still bound, per cent of control (CDKL5 (human)): 92%; kinase still bound, per cent of control [5]: 54%; kinase still bound, per cent of control (PIK3CG (human)): 71%; kinase still bound, per cent of control (CPK1 (P.falciparum)): 24%; kinase still bound, per cent of control (EPHB6 (human)): 24%; kinase still bound, per cent of control [6]: 100%
N#Cc1c(NC(=O)c2cccc3ccccc23)sc2c1CCCC2	83%	81%	100%	100%	100%	100%	100%	100%	100%	90%	100%	100%	95%	100%	100%	82%	56%	100%	88%	66%	kinase still bound, per cent of control [3]: 78%; kinase still bound, per cent of control (HUNK (human)): 95%; kinase still bound, per cent of control (VRK2 (human)): 100%; kinase still bound, per cent of control (GRK1 (human)): 100%; kinase still bound, per cent of control (MAP2K7 (human)): 100%; kinase still bound, per cent of control (ERBB3 (human)): 100%; kinase still bound, per cent of control (NEK4 (human)): 76%; kinase still bound, per cent of control (IRAK4 (human)): 100%; kinase still bound, per cent of control (PKN3 (M.tuberculosis)): 100%; kinase still bound, per cent of control (HIPK4 (human)): 100%; kinase still bound, per cent of control (PLK2 (human)): 100%; kinase still bound, per cent of control (TBK1 (human)): 88%; kinase still bound, per cent of control (CDKL5 (human)): 70%; kinase still bound, per cent of control [5]: 100%; kinase still bound, per cent of control (PIK3CG (human)): 99%; kinase still bound, per cent of control (CPK1 (P.falciparum)): 81%; kinase still bound, per cent of control (EPHB6 (human)): 85%; kinase still bound, per cent of control [6]: 92%
CCN1CCN(Cc2ccc(Nc3ncc4c(n3)N(C)c3ccccc3C(=O)N4C)cc2C(F)(F)F)CC1	53%	81%	65%	88%	100%	80%	3.6%	94%	16%	96%	56%	74%	22%	94%	97%	100%	100%	100%	24%	36%	kinase still bound, per cent of control [1]: 99%; kinase still bound, per cent of control [3]: 74%; kinase still bound, per cent of control (HUNK (human)): 59%; kinase still bound, per cent of control (VRK2 (human)): 100%; kinase still bound, per cent of control (GRK1 (human)): 78%; kinase still bound, per cent of control [4]: 79%; kinase still bound, per cent of control (MAP2K7 (human)): 100%; kinase still bound, per cent of control (ERBB3 (human)): 75%; kinase still bound, per cent of control (NEK4 (human)): 80%; kinase still bound, per cent of control (IRAK4 (human)): 100%; kinase still bound, per cent of control (PKN3 (M.tuberculosis)): 22%; kinase still bound, per cent of control (HIPK4 (human)): 100%; kinase still bound, per cent of control (PLK2 (human)): 100%; kinase still bound, per cent of control (TBK1 (human)): 60%; kinase still bound, per cent of control (CDKL5 (human)): 100%; kinase still bound, per cent of control [5]: 0.1%; kinase still bound, per cent of control (PIK3CG (human)): 0%; kinase still bound, per cent of control (CPK1 (P.falciparum)): 74%; kinase still bound, per cent of control (EPHB6 (human)): 21%; kinase still bound, per cent of control [6]: 18%
Cc1ccc2nc(NCCN)c3ncc(C)n3c2c1	74%	100%	58%	100%	100%	16%	100%	100%	68%	88%	100%	100%	100%	100%	8.8%	98%	100%	87%	100%	100%	kinase still bound, per cent of control [1]: 100%; kinase still bound, per cent of control [3]: 39%; kinase still bound, per cent of control (HUNK (human)): 100%; kinase still bound, per cent of control (VRK2 (human)): 100%; kinase still bound, per cent of control (GRK1 (human)): 100%; kinase still bound, per cent of control [4]: 100%; kinase still bound, per cent of control (MAP2K7 (human)): 100%; kinase still bound, per cent of control (ERBB3 (human)): 83%; kinase still bound, per cent of control (NEK4 (human)): 100%; kinase still bound, per cent of control (IRAK4 (human)): 100%; kinase still bound, per cent of control (PKN3 (M.tuberculosis)): 0%; kinase still bound, per cent of control (HIPK4 (human)): 41%; kinase still bound, per cent of control (PLK2 (human)): 100%; kinase still bound, per cent of control (TBK1 (human)): 100%; kinase still bound, per cent of control (CDKL5 (human)): 46%; kinase still bound, per cent of control [5]: 87%; kinase still bound, per cent of control (PIK3CG (human)): 100%; kinase still bound, per cent of control (CPK1 (P.falciparum)): 52%; kinase still bound, per cent of control (EPHB6 (human)): 44%; kinase still bound, per cent of control [6]: 52%
